According to patent US6187800A, “Method for the prevention and treatment of mastitis” (Novartis Animal Health U.S., Inc., priority 1997, dated 2001):

Assays:
[1] = test system: pathogens causing bovine mastitis; assay: Activity against mastitis pathogens (general statement); assay type: cell-based
[2] = Hydrophobicity and water solubility
Bacillus cereus = assay: MIC, agar well diffusion method; assay type: cell-based; settings: plate count agar +0.2% potato starch
Protocol: (§1) The minimal inhibitory concentrations (MIC) of micrococcin P1 against a panel of test organisms were determined using an agar well diffusion method. Agar plates were overlaid with soft agar seeded with the test organism. When the agar had solidified wells of 4 mm diameter were cut in the agar. 50 μl of a series of two fold dilutions of the peptide in citrate buffer pH4 were applied to the wells and the plates were kept at 4° C. for two hours prior to incubation at 37° C. overnight. The MIC was determined as the lowest concentration of peptide giving a clear zone of lysis around the well. Indicator strains were grown in Tryptose broth (Difco). M17 medium (Merck) was used for plates and soft agar with the following exceptions. For Pasteurella haemolytica, tryptose supplemented with 5% of toetal calf's serum was used. For Leuconostoc mesenteroides, plate count agar--Merck--, +15% saccharose was used, and for Bacillus cereus plate count agar +0.2% potato starch-Sigma 2004-) was used.

E.coli = assay: MIC, agar well diffusion method; assay type: cell-based; settings: 37° C. overnight
Protocol: as §1

[3] = test system: Leuconostoc mesenteroides; assay: MIC, agar well diffusion method; assay type: cell-based; settings: plate count agar +15% saccharose
Protocol: as §1

Listeria innocua = assay: MIC, agar well diffusion method; assay type: cell-based; settings: 37° C. overnight
Protocol: as §1

Micrococcus luteus = assay: MIC, agar well diffusion method; assay type: cell-based; settings: 37° C. overnight
Protocol: as §1

Pasteurella haemolytica = assay: MIC, agar well diffusion method; assay type: cell-based; settings: tryptose + 5% foetal calf's serum
Protocol: as §1

[4] = test system: Staphylococcus aureus Newbould; assay: MIC, agar well diffusion method; assay type: cell-based; settings: 37° C. overnight
Protocol: as §1

[5] = test system: Staphylococcus aureus V557; assay: MIC, agar well diffusion method; assay type: cell-based; settings: 37° C. overnight
Protocol: as §1

Streptococcus faecalis = assay: MIC, agar well diffusion method; assay type: cell-based; settings: 37° C. overnight
Protocol: as §1

Streptococcus uberis = assay: MIC, agar well diffusion method; assay type: cell-based; settings: 37° C. overnight
Protocol: as §1

Staphylococcus aureus = assay: Efficacy in subclinical bovine mastitis (experimentally infected quarters, intramammary treatment); assay type: in vivo, cows (bovine); settings: n = 9
From the text: A dairy herd is maintained to supply candidate cows for enrollment in trials. Cows are bought from local cattle dealers. These cows should have a minimal milk production of 15 l/day. Two milk samples are taken one day apart from all quarters for bacteriological examination. No cows from which mastitis pathogens can be recovered are entered into the tests. Non-infected cows are selected based on non recovery of Staphylococcus aureus from two milk samples taken one day apart from all quarters. Then, 3 quarters are inoculated via the intramammary route using a suspension of Staphylococcus aureus. The 4th quarter serves as a control for the milking hygiene routines. During the two to four weeks after inoculation, milk samples are taken from all quarters, at least 3 times. These samples are cultured, and if Staphylococcus aureus is recovered from at least two of them, the quarter is considered infected.
Treatments are assigned randomly to infected quarters and injected via the intramammary route. Milk samples are taken daily until a minimum of 14 days after the last treatment. A quarter is considered to be cured if milk samples from that quarter become negative (i.e., no Staphylococcus aureus can be recovered) within 7 days after the last treatment and stay negative throughout the following 14 day sampling period.
This experimental model is used to have a fixed framework on which to evaluate treatments. To work with Staphylococcus aureus has the advantage that it is the most difficult Gram positive bacterium to treat and one of the most important bacteria causing bovine mastitis. Therefore, cure rates should be expected to be lower than for other Gram positive bacteria, such as Streptococci and coagulase-negative Staphylococci.
The results presented in Table 2 show the percentage of quarters positive for Staphylococcus aureus (i.e., quarters from which Staphylococcus aureus can be recovered) during and after treatment with 3 doses of either placebo, 2 mg micrococcin P1, or 300 mg ampiclox at 12 hour intervals, or 3 doses with 4 mg micrococcin P1 at 48 hour intervals.

Lactobacillus bulgaricus = assay: Acidification of milk from treated cows by lactic fermenting bacteria; assay type: cell-based; settings: 3 doses at 12 h
From the text: (§2) Acidification is the first and most important step in the manufacturing processes when milk is fermented. If acidification proceeds normally then it is very likely that all other steps will be normal. Therefore one can investigate the effect of different concentrations of micrococcin P1 on the kinetics of acidification of milk by lactic fermenting bacteria.
(§3) Cows that are free from infection with mastitis pathogens, based on bacteriological culture of milk, are enrolled in these trials. Identical treatments are administered to all 4 quarters of an individual cow. Milk from evening milkings is refrigerated at 4° C. overnight to be tested the following morning. Samples of 500 ml are pasteurized by heating to 80° C. in a waterbath and then cooled to room temperature.
(§4) Lyophylised cultures as used in commercial conditions are obtained from Rudolf Wittwer, CH-5002 Rombach, Aarau, Switzerland. These cultures are reconstituted according to manufacturers recommendations and reactivated by passage three times in sterile skimmed milk. Each passage is incubated for 16 to 18 hours at the optimum temperature for the said bacterial strain.
(§5) The culture obtained after the third passage is diluted to 2% with whole sterile (UHT) milk, aliquotted in 10 ml tubes and frozen at -20° C. for use in experiments.
(§6) The stock cultures prepared above are thawed at 40° C. then incubated overnight at 37° C. and used to inoculate test samples. The test samples are inoculated with 2% by volume of the experimental culture of the bacterial strain under test. The samples are then mixed and incubated for 24 hours at the optimal temperature for the particular bacterial strain under evaluation. The pH is measured each two hours during an eight hour period and again at 24 hours. The rate of acidification of milk containing different concentrations of active micrococcin P1 can then be compared to the negative controls.
(§7) The results given in tables 4 and 5 below have been obtained from cows receiving various amounts of micrococcin P1 on three occasions, at 12 hour intervals.

[6] = test system: Streptococcus thermophilus; assay: as above; assay type: cell-based; settings: 3 doses at 12 h
From the text: as §2, §3, §4, §5, §6, §7

C/C=C(\NC(=O)c1csc(-c2csc(-c3ccc4c(n3)-c3csc(n3)[C@H]([C@@H](C)O)NC(=O)c3csc(n3)[C@H](C(C)C)NC(=O)c3csc(n3)/C(=C/C)NC(=O)[C@H]([C@@H](C)O)NC(=O)c3csc-4n3)n2)n1)C(=O)NCC(C)=O [P2, micrococcin P2]
activity against pathogens causing bovine mastitis [1]: highly active against pathogens causing bovine mastitis | hydrophobicity [2]: highly hydrophobic | solubility in water [2]: poorly soluble in water

micrococcin P1
MIC (Bacillus cereus): 0.24 µg/mL | MIC (E.coli): > 1000 µg/mL | MIC [3]: > 1000 µg/mL | MIC (Listeria innocua): 1.95 µg/mL | MIC (Micrococcus luteus): 0.015 µg/mL | MIC (Pasteurella haemolytica): > 1000 µg/mL | MIC [4]: 0.24 µg/mL | MIC [5]: 1.91 µg/mL | MIC (Streptococcus faecalis): 1.98 µg/mL | MIC (Streptococcus uberis): 1.49 µg/mL | % of quarters positive (Staphylococcus aureus; 3 × 2 mg each 12 hours, day 0 after start of treatment): 100.0% | % of quarters positive (Staphylococcus aureus; 3 × 2 mg each 12 hours, day 1 after start of treatment): 62.5% | % of quarters positive (Staphylococcus aureus; 3 × 2 mg each 12 hours, day 2 after start of treatment): 12.5% | % of quarters positive (Staphylococcus aureus; 3 × 2 mg each 12 hours, day 3 after start of treatment): 50.0% | % of quarters positive (Staphylococcus aureus; 3 × 2 mg each 12 hours, day 4 after start of treatment): 50.0% | % of quarters positive (Staphylococcus aureus; 3 × 2 mg each 12 hours, day 5 after start of treatment): 62.5% | % of quarters positive (Staphylococcus aureus; 3 × 2 mg each 12 hours, day 7 after start of treatment): 62.5% | % of quarters positive (Staphylococcus aureus; 3 × 2 mg each 12 hours, day 8 after start of treatment): 75.0% | % of quarters positive (Staphylococcus aureus; 3 × 2 mg each 12 hours, day 9 after start of treatment): 75.0% | % of quarters positive (Staphylococcus aureus; 3 × 2 mg each 12 hours, day 10 after start of treatment): 75.0% | % of quarters positive (Staphylococcus aureus; 3 × 2 mg each 12 hours, day 11 after start of treatment): 87.5% | % of quarters positive (Staphylococcus aureus; 3 × 2 mg each 12 hours, day 12 after start of treatment): 75.0% | % of quarters positive (Staphylococcus aureus; 3 × 2 mg each 12 hours, day 14 after start of treatment): 87.5% | % of quarters positive (Staphylococcus aureus; 3 × 2 mg each 12 hours, day 15 after start of treatment): 62.5% | % of quarters positive (Staphylococcus aureus; 3 × 2 mg each 12 hours, day 16 after start of treatment): 75.0% | % of quarters positive (Staphylococcus aureus; 3 × 4 mg each 48 hours, day 0 after start of treatment): 100% | % of quarters positive (Staphylococcus aureus; 3 × 4 mg each 48 hours, day 1 after start of treatment): 22% | % of quarters positive (Staphylococcus aureus; 3 × 4 mg each 48 hours, day 2 after start of treatment): 22% | % of quarters positive (Staphylococcus aureus; 3 × 4 mg each 48 hours, day 3 after start of treatment): 11% | % of quarters positive (Staphylococcus aureus; 3 × 4 mg each 48 hours, day 4 after start of treatment): 11% | % of quarters positive (Staphylococcus aureus; 3 × 4 mg each 48 hours, day 5 after start of treatment): 0% | % of quarters positive (Staphylococcus aureus; 3 × 4 mg each 48 hours, day 7 after start of treatment): 0% | % of quarters positive (Staphylococcus aureus; 3 × 4 mg each 48 hours, day 8 after start of treatment): 22% | % of quarters positive (Staphylococcus aureus; 3 × 4 mg each 48 hours, day 9 after start of treatment): 22% | % of quarters positive (Staphylococcus aureus; 3 × 4 mg each 48 hours, day 10 after start of treatment): 22% | % of quarters positive (Staphylococcus aureus; 3 × 4 mg each 48 hours, day 11 after start of treatment): 22% | % of quarters positive (Staphylococcus aureus; 3 × 4 mg each 48 hours, day 12 after start of treatment): 22% | % of quarters positive (Staphylococcus aureus; 3 × 4 mg each 48 hours, day 14 after start of treatment): 44% | % of quarters positive (Staphylococcus aureus; 3 × 4 mg each 48 hours, day 15 after start of treatment): 44% | % of quarters positive (Staphylococcus aureus; 3 × 4 mg each 48 hours, day 16 after start of treatment): 22% | pH (acidification of milk) (Lactobacillus bulgaricus; 0.1 mg, 0 hours of growth): 6.48 | pH (acidification of milk) (Lactobacillus bulgaricus; 0.1 mg, 2 hours of growth): 5.73 | pH (acidification of milk) (Lactobacillus bulgaricus; 0.1 mg, 4 hours of growth): 4.29 | pH (acidification of milk) (Lactobacillus bulgaricus; 0.1 mg, 6 hours of growth): 3.89 | pH (acidification of milk) (Lactobacillus bulgaricus; 0.1 mg, 8 hours of growth): 3.72 | pH (acidification of milk) (Lactobacillus bulgaricus; 0.1 mg, 24 hours of growth): 3.51 | pH (acidification of milk) (Lactobacillus bulgaricus; 0.5 mg, 0 hours of growth): 6.53 | pH (acidification of milk) (Lactobacillus bulgaricus; 0.5 mg, 2 hours of growth): 5.36 | pH (acidification of milk) (Lactobacillus bulgaricus; 0.5 mg, 4 hours of growth): 4.21 | pH (acidification of milk) (Lactobacillus bulgaricus; 0.5 mg, 6 hours of growth): 3.85 | pH (acidification of milk) (Lactobacillus bulgaricus; 0.5 mg, 8 hours of growth): 3.72 | pH (acidification of milk) (Lactobacillus bulgaricus; 0.5 mg, 24 hours of growth): 3.47 | pH (acidification of milk) (Lactobacillus bulgaricus; 1 mg, 0 hours of growth): 6.56 | pH (acidification of milk) (Lactobacillus bulgaricus; 1 mg, 2 hours of growth): 5.83 | pH (acidification of milk) (Lactobacillus bulgaricus; 1 mg, 4 hours of growth): 4.34 | pH (acidification of milk) (Lactobacillus bulgaricus; 1 mg, 6 hours of growth): 3.94 | pH (acidification of milk) (Lactobacillus bulgaricus; 1 mg, 8 hours of growth): 3.75 | pH (acidification of milk) (Lactobacillus bulgaricus; 1 mg, 24 hours of growth): 3.50 | pH (acidification of milk) (Lactobacillus bulgaricus; 2 mg, 0 hours of growth): 6.57 | pH (acidification of milk) (Lactobacillus bulgaricus; 2 mg, 2 hours of growth): 5.69 | pH (acidification of milk) (Lactobacillus bulgaricus; 2 mg, 4 hours of growth): 4.34 | pH (acidification of milk) (Lactobacillus bulgaricus; 2 mg, 6 hours of growth): 3.92 | pH (acidification of milk) (Lactobacillus bulgaricus; 2 mg, 8 hours of growth): 3.75 | pH (acidification of milk) (Lactobacillus bulgaricus; 2 mg, 24 hours of growth): 3.49 | pH (acidification of milk) ([6]; 0.1 mg, 0 hours of growth): 6.60 | pH (acidification of milk) ([6]; 0.1 mg, 2 hours of growth): 6.03 | pH (acidification of milk) ([6]; 0.1 mg, 4 hours of growth): 4.47 | pH (acidification of milk) ([6]; 0.1 mg, 6 hours of growth): 4.08 | pH (acidification of milk) ([6]; 0.1 mg, 8 hours of growth): 3.94 | pH (acidification of milk) ([6]; 0.1 mg, 24 hours of growth): 3.52 | pH (acidification of milk) ([6]; 0.5 mg, 0 hours of growth): 6.61 | pH (acidification of milk) ([6]; 0.5 mg, 2 hours of growth): 6.04 | pH (acidification of milk) ([6]; 0.5 mg, 4 hours of growth): 4.50 | pH (acidification of milk) ([6]; 0.5 mg, 6 hours of growth): 4.13 | pH (acidification of milk) ([6]; 0.5 mg, 8 hours of growth): 4.00 | pH (acidification of milk) ([6]; 0.5 mg, 24 hours of growth): 3.51 | pH (acidification of milk) ([6]; 1 mg, 0 hours of growth): 6.67 | pH (acidification of milk) ([6]; 1 mg, 2 hours of growth): 6.20 | pH (acidification of milk) ([6]; 1 mg, 4 hours of growth): 4.53 | pH (acidification of milk) ([6]; 1 mg, 6 hours of growth): 4.11 | pH (acidification of milk) ([6]; 1 mg, 8 hours of growth): 3.94 | pH (acidification of milk) ([6]; 1 mg, 24 hours of growth): 3.48 | pH (acidification of milk) ([6]; 2 mg, 0 hours of growth): 6.72 | pH (acidification of milk) ([6]; 2 mg, 2 hours of growth): 6.33 | pH (acidification of milk) ([6]; 2 mg, 4 hours of growth): 4.74 | pH (acidification of milk) ([6]; 2 mg, 6 hours of growth): 4.25 | pH (acidification of milk) ([6]; 2 mg, 8 hours of growth): 4.06 | pH (acidification of milk) ([6]; 2 mg, 24 hours of growth): 3.57 | activity against pathogens causing bovine mastitis [1]: highly active against pathogens causing bovine mastitis | hydrophobicity [2]: highly hydrophobic | solubility in water [2]: poorly soluble in water
